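Values below derive from 48-hour exposures of cells grown in 96-well plates, with endpoints linearly interpolated between the two concentrations bracketing the appropriate inhibition level. The concentration for 50% growth inhibition is given as GI50.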 The source made the active and inactive calls. Cut-off read from the data, not from the text of the source: active = GI50 up to about 1.1 µM and inactive = higher.
How the values were obtained:
Assay in all cases: NCI tumour cell line growth inhibition, 48 h
COLO 205 = test system: COLO 205
HL-60 = test system: HL-60
HOP-92 = test system: HOP-92
M14 = test system: M14
RXF 393 = test system: RXF 393
SNB-19 = test system: SNB-19
NCI-H460 = test system: NCI-H460
UO-31 = test system: UO-31
SK-OV-3 = test system: SK-OV-3
SK-MEL-5 = test system: SK-MEL-5
MDA-N = test system: MDA-N
KM12 = test system: KM12
HCT-15 = test system: HCT-15
A549 = test system: A549
SF-268 = test system: SF-268
RPMI-8226 = test system: RPMI-8226
786-0 = test system: 786-0
PC-3 = test system: PC-3
MDA-MB-231 = test system: MDA-MB-231
OVCAR-4 = test system: OVCAR-4
U-251 = test system: U-251
LOX IMVI = test system: LOX IMVI
SF-295 = test system: SF-295
SF-539 = test system: SF-539
HCT-116 = test system: HCT-116
MDA-MB-435 = test system: MDA-MB-435
HCC 2998 = test system: HCC 2998
CCRF-CEM = test system: CCRF-CEM
Hs-578T = test system: Hs-578T
Malme-3M = test system: Malme-3M
UACC-257 = test system: UACC-257
DU-145 = test system: DU-145
NCI-H226 = test system: NCI-H226
NCI-H23 = test system: NCI-H23
OVCAR-8 = test system: OVCAR-8
SK-MEL-28 = test system: SK-MEL-28
SN12C = test system: SN12C
OVCAR-5 = test system: OVCAR-5
SNB-75 = test system: SNB-75
MCF7 = test system: MCF7
NCI/ADR-RES = test system: NCI/ADR-RES
MOLT-4 = test system: MOLT-4
BT-549 = test system: BT-549
HT-29 = test system: HT-29
TK-10 = test system: TK-10
ACHN = test system: ACHN
CAKI-1 = test system: CAKI-1
EKVX = test system: EKVX
K562 = test system: K562
SW-620 = test system: SW-620
HOP-62 = test system: HOP-62
OVCAR-3 = test system: OVCAR-3
SK-MEL-2 = test system: SK-MEL-2
UACC-62 = test system: UACC-62
IGROV-1 = test system: IGROV-1
A498 = test system: A498
SR = test system: SR

CCOC(=O)/C=C1/Nc2cc(F)c(F)cc2NC1=O
GI50 (COLO 205): > 100 µM (inactive) | GI50 (HL-60): > 100 µM (inactive) | GI50 (HOP-92): > 100 µM (inactive) | GI50 (M14): > 100 µM (inactive) | GI50 (RXF 393): > 100 µM (inactive) | GI50 (SNB-19): > 100 µM (inactive) | GI50 (NCI-H460): > 100 µM (inactive) | GI50 (UO-31): > 100 µM (inactive) | GI50 (SK-OV-3): > 100 µM (inactive) | GI50 (SK-MEL-5): > 100 µM (inactive) | GI50 (MDA-N): > 100 µM (inactive) | GI50 (KM12): > 100 µM (inactive) | GI50 (HCT-15): > 100 µM | GI50 (A549): > 100 µM (inactive) | GI50 (SF-268): > 100 µM (inactive) | GI50 (RPMI-8226): > 100 µM (inactive) | GI50 (786-0): > 100 µM (inactive) | GI50 (PC-3): > 100 µM (inactive) | GI50 (MDA-MB-231): > 100 µM (inactive) | GI50 (OVCAR-4): > 100 µM (inactive) | GI50 (U-251): > 100 µM (inactive) | GI50 (LOX IMVI): > 100 µM (inactive) | GI50 (SF-295): > 100 µM (inactive) | GI50 (SF-539): > 100 µM (inactive) | GI50 (HCT-116): > 100 µM (inactive) | GI50 (MDA-MB-435): > 100 µM (inactive) | GI50 (HCC 2998): > 100 µM (inactive) | GI50 (CCRF-CEM): > 100 µM (inactive) | GI50 (Hs-578T): > 100 µM (inactive) | GI50 (Malme-3M): > 100 µM (inactive) | GI50 (UACC-257): > 100 µM (inactive) | GI50 (DU-145): > 100 µM (inactive) | GI50 (NCI-H226): > 100 µM (inactive) | GI50 (NCI-H23): > 100 µM (inactive) | GI50 (OVCAR-8): > 100 µM (inactive) | GI50 (SK-MEL-28): > 100 µM (inactive) | GI50 (SN12C): > 100 µM (inactive) | GI50 (OVCAR-5): > 100 µM (inactive) | GI50 (SNB-75): > 100 µM (inactive) | GI50 (MCF7): > 100 µM (inactive) | GI50 (NCI/ADR-RES): > 100 µM (inactive) | GI50 (MOLT-4): > 100 µM (inactive) | GI50 (BT-549): > 100 µM (inactive) | GI50 (HT-29): > 100 µM (inactive) | GI50 (TK-10): > 100 µM (inactive) | GI50 (ACHN): > 100 µM (inactive) | GI50 (CAKI-1): > 100 µM (inactive) | GI50 (EKVX): > 100 µM (inactive) | GI50 (K562): > 100 µM (inactive) | GI50 (SW-620): > 100 µM (inactive) | GI50 (HOP-62): > 100 µM (inactive) | GI50 (OVCAR-3): > 100 µM (inactive) | GI50 (SK-MEL-2): > 100 µM (inactive) | GI50 (UACC-62): > 100 µM (inactive)

CCN(CC)C(=O)Cn1c2c(c3ccccc31)CCCC2
GI50 (COLO 205): > 100 µM (inactive) | GI50 (HL-60): 45.2 µM (inactive) | GI50 (HOP-92): > 100 µM (inactive) | GI50 (M14): > 100 µM (inactive) | GI50 (IGROV-1): > 100 µM (inactive) | GI50 (A498): > 100 µM (inactive) | GI50 (SNB-19): > 100 µM (inactive) | GI50 (NCI-H460): > 100 µM (inactive) | GI50 (UO-31): 23.2 µM (inactive) | GI50 (SK-OV-3): > 100 µM (inactive) | GI50 (SK-MEL-5): 64 µM (inactive) | GI50 (MDA-N): 77.8 µM (inactive) | GI50 (HCT-15): 74.6 µM | GI50 (A549): 61.8 µM (inactive) | GI50 (SF-268): > 100 µM (inactive) | GI50 (RPMI-8226): 56.8 µM (inactive) | GI50 (786-0): > 100 µM (inactive) | GI50 (PC-3): 68.5 µM (inactive) | GI50 (OVCAR-4): > 10 µM (inactive) | GI50 (LOX IMVI): > 100 µM (inactive) | GI50 (SF-295): 49.8 µM (inactive) | GI50 (SF-539): 47.2 µM (inactive) | GI50 (HCT-116): 40.9 µM (inactive) | GI50 (MDA-MB-435): 91.4 µM (inactive) | GI50 (HCC 2998): > 100 µM (inactive) | GI50 (CCRF-CEM): 89.3 µM (inactive) | GI50 (Hs-578T): 24.5 µM (inactive) | GI50 (Malme-3M): > 100 µM (inactive) | GI50 (UACC-257): > 100 µM (inactive) | GI50 (NCI-H23): 45.4 µM (inactive) | GI50 (OVCAR-8): > 100 µM (inactive) | GI50 (SK-MEL-28): > 100 µM (inactive) | GI50 (SN12C): > 100 µM (inactive) | GI50 (OVCAR-5): > 100 µM (inactive) | GI50 (MCF7): > 100 µM (inactive) | GI50 (NCI/ADR-RES): 66.4 µM (inactive) | GI50 (BT-549): > 100 µM (inactive) | GI50 (SR): 49.9 µM (inactive) | GI50 (HT-29): > 100 µM (inactive) | GI50 (TK-10): > 100 µM (inactive) | GI50 (ACHN): 65.2 µM (inactive) | GI50 (CAKI-1): 57 µM (inactive) | GI50 (EKVX): > 100 µM (inactive) | GI50 (K562): 68.4 µM (inactive) | GI50 (SW-620): > 100 µM (inactive) | GI50 (HOP-62): > 100 µM (inactive) | GI50 (OVCAR-3): > 10 µM (inactive) | GI50 (SK-MEL-2): > 100 µM (inactive) | GI50 (UACC-62): 99.8 µM (inactive)

— ChEMBL document CHEMBL1201862, “PubChem BioAssay data set” (2004)
